Measured values taken from patent publication US20260226065A1, “SUBSTITUTED BENZENE COMPOUND” (DAIICHI SANKYO COMPANY, LIMITED, priority 2023, published 2026).

Target: T1, NLRP3 inflammasome (Homo sapiens, UniProt Q96P20)
T1 construct: endogenous in cells; host or cells: THP-1 (human monocyte-derived), PMA-differentiated, Nigericin-stimulated
Assay: In vitro IL-1β production test (PMA-differentiated THP-1 cells, Nigericin stimulation, AlphaLISA)
Assay type: cell-based
Details: inhibition of IL-1β production; THP-1 cells differentiated with 200 nM PMA; 0.015 mM Nigericin; 2 hours
Description: Human monocyte-derived THP-1 cells were cultured for one day in 10% bovine serum-containing RPMI-1640 medium (Thermo #A10491-01) supplemented with 200 nM phorbol 12-myristate 13-acetate (PMA, Sigma #P8139) to induce differentiation.
NLRP3 inflammasome was induced by replacing the culture medium with bovine serum-free RPMI-1640 medium supplemented with 0.015 mM Nigericin (Sigma #SML1779) and the test compound of known concentrations.
After 2 hours, the culture medium supernatant was collected and the IL-1β protein concentration was measured using the AlphaLISA (registered trademark) assay (PerkinElmer #AL220C).
The IL-1β concentration without the addition of the test compound and with Nigericin stimulation was set as 0% inhibitory activity, and the IL-1β concentration without Nigericin stimulation was set as 100% inhibitory activity, and the inhibition rate (% inhibition) of the test compound at each added concentration was calculated.
The % inhibition value was subjected to sigmoid fitting using a logistic regression model to calculate the 50% inhibitory concentration (IC50 value).

T1 sequence (Q96P20 whole entry): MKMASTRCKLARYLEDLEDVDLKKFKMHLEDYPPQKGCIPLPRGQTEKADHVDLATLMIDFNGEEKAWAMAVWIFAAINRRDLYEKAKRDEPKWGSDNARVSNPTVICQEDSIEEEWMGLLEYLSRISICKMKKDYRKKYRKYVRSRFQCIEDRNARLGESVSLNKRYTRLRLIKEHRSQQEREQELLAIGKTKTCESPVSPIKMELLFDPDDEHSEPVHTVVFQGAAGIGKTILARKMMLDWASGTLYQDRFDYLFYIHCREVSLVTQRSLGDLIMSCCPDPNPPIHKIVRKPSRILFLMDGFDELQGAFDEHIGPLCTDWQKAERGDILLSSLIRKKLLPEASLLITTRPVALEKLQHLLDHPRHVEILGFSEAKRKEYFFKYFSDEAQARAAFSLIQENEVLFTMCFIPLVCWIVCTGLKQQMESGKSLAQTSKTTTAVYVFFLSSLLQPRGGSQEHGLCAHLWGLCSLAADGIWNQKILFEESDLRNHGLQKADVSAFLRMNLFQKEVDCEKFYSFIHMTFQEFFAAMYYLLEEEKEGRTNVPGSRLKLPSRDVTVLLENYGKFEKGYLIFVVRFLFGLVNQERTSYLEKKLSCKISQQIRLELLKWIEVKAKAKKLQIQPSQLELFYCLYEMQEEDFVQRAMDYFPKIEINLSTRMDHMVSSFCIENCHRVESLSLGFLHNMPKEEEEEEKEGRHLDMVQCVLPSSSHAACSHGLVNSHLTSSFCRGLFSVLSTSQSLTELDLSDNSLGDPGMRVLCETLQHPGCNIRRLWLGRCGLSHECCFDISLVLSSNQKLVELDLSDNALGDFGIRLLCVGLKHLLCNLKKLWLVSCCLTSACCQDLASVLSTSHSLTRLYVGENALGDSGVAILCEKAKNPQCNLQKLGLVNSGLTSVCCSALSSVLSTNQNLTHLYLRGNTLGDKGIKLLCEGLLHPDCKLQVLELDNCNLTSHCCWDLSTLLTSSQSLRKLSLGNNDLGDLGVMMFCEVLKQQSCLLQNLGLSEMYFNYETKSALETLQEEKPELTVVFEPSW

Structure (SMILES)	IC50 [nM]
Cc1c(-c2ccc3c(c2O)CCC3)nnc2c1ccn2[C@H]1C[C@@](C)(O)C1 [Example 41, 5-{7-[(1s,3s)-3-hydroxy-3-methylcyclobutyl]-4-methyl-7H-pyrrolo[2,3-c]pyridazin-3-yl}-2,3-dihydro-1H-inden-4-ol]	77.5
Cc1cc(C(F)(F)F)cc(O)c1-c1cc2c(C)cn([C@@H]3CCCN(C)C3)c2nn1 [Example 56, 3-methyl-2-{5-methyl-7-[(3R)-1-methylpiperidin-3-yl]-7H-pyrrolo[2,3-c]pyridazin-3-yl}-5-(trifluoromethyl)phenol]	14.4
Cc1cc(C(F)(F)F)cc(O)c1-c1cc2c(nn1)N(c1ncc(F)cn1)[C@@H]1CCO[C@H]21 (single isomer, unassigned) [Example 98, 2-[(4bR,7aR or 4bS,7aS)-8-(5-fluoropyrimidin-2-yl)-6,7,7a,8-tetrahydro-4bH-furo[2′,3′:4,5]pyrrolo[2,3-c]pyridazin-3-yl]-3-methyl-5-(trifluoromethyl)phenol]	13.8
Cc1cc(C(F)(F)F)cc(O)c1-c1cc2c(C)cn(C34CCCC(O)(C3)C4)c2nn1 [Example 8, 5-{3-[2-hydroxy-6-methyl-4-(trifluoromethyl)phenyl]-5-methyl-7H-pyrrolo[2,3-c]pyridazin-7-yl}bicyclo[3.1.1]heptan-1-ol]	15.4
Cc1cc(C(F)(F)F)cc(O)c1-c1cc2c(nn1)N([C@@H]1CCCN(C)C1)CCC2 [Example 36, 3-methyl-2-{8-[(3R)-1-methylpiperidin-3-yl]-5,6,7,8-tetrahydropyrido[2,3-c]pyridazin-3-yl}-5-(trifluoromethyl)phenol]	42.1
Cc1cc(OC(F)F)cc(O)c1-c1cc2c(OC(F)F)cn([C@H]3C[C@@](C)(O)C3)c2nn1 [Example 78, 5-(difluoromethoxy)-2-[5-(difluoromethoxy)-7-[(1s,3s)-3-hydroxy-3-methylcyclobutyl]-7H-pyrrolo[2,3-c]pyridazin-3-yl]-3-methylphenol]	35
Cc1cc(C(F)(F)F)cc(O)c1-c1cc2ccn(C[C@H](C)O)c2nn1 [Example 89, 2-{7-[(28)-2-hydroxypropyl]-7H-pyrrolo[2,3-c]pyridazin-3-yl}-3-methyl-5-(trifluoromethyl)phenol]	138
CCN1CC2(O)CC(n3cc(C)c4cc(-c5c(C)cc(C(F)(F)F)cc5O)nnc43)(C1)C2 [Example 75, 3-ethyl-5-{3-[2-hydroxy-6-methyl-4-(trifluoromethyl)phenyl]-5-methyl-7H-pyrrolo[2,3-c]pyridazin-7-yl}-3-azabicyclo[3.1.1]heptan-1-ol]	98.4
Cc1cc(C(F)(F)F)cc(O)c1-c1cc2c(nn1)N([C@@H]1CCCN(C3CCOC3)C1)CC2 (mixture of isomers) [Example 57, 3-methyl-2-{7-[(3R)-1-(tetrahydrofuran-3-yl)piperidin-3-yl]-6,7-dihydro-5H-pyrrolo[2,3-c]pyridazin-3-yl}-5-(trifluoromethyl)phenol]	57.2
CCN1CCC[C@@H](n2cc(C)c3cc(-c4c(C)cc(OC(F)F)cc4O)nnc32)C1 [Example 71, 5-(difluoromethoxy)-2-{7-[(3R)-1-ethylpiperidin-3-yl]-5-methyl-7H-pyrrolo[2,3-c]pyridazin-3-yl}-3-methylphenol]	8.18
CCN1CCC[C@@H](N2CCc3cc(-c4c(C)cc(C(F)(F)F)cc4O)nnc32)C1 [Example 11, 2-{7-[(3R)-1-ethylpiperidin-3-yl]-6,7-dihydro-5H-pyrrolo[2,3-c]pyridazin-3-yl}-3-methyl-5-(trifluoromethyl)phenol]	7.32
Cc1cc(C(F)(F)F)cc(O)c1-c1cc2cc(C)n([C@H]3C[C@@](C)(O)C3)c2nn1 [Example 87, 2-{7-[(1s,3s)-3-hydroxy-3-methylcyclobutyl]-6-methyl-7H-pyrrolo[2,3-c]pyridazin-3-yl}-3-methyl-5-(trifluoromethyl)phenol]	40.1
Cc1cc(C(F)(F)F)cc(O)c1-c1cc2c(Cl)cn([C@H]3C[C@@](C)(O)C3)c2nn1 [Example 6, 2-{5-chloro-7-[(1s,3s)-3-hydroxy-3-methylcyclobutyl]-7H-pyrrolo[2,3-c]pyridazin-3-yl}-3-methyl-5-(trifluoromethyl)phenol]	26
Cc1cc(C)c(-c2cc3c(C)cn([C@H]4C[C@@](C)(O)C4)c3nn2)c(O)c1 [Example 90, 2-{7-[(1s,3s)-3-hydroxy-3-methylcyclobutyl]-5-methyl-7H-pyrrolo[2,3-c]pyridazin-3-yl}-3,5-dimethylphenol]	56.5
Cc1cc(C(F)(F)F)cc(O)c1-c1cc2c(C)c(C)n([C@H]3C[C@@](C)(O)C3)c2nn1 [Example 51, 2-{7-[(1s,3s)-3-hydroxy-3-methylcyclobutyl]-5,6-dimethyl-7H-pyrrolo[2,3-c]pyridazin-3-yl}-3-methyl-5-(trifluoromethyl)phenol]	33.6
Cc1cn([C@H]2C[C@@](C)(O)C2)c2nnc(-c3c(O)cc(Cl)cc3Cl)cc12 [Example 63, 3,5-dichloro-2-{7-[(1s,3s)-3-hydroxy-3-methylcyclobutyl]-5-methyl-7H-pyrrolo[2,3-c]pyridazin-3-yl}phenol]	42.3
Cc1cc(OC(F)F)cc(O)c1-c1cc2c(C#N)cn([C@@H]3CCCN(C(C)C)C3)c2nn1 [Example 68, 3-[4-(difluoromethoxy)-2-hydroxy-6-methylphenyl]-7-[(3R)-1-(propan-2-yl)piperidin-3-yl]-7H-pyrrolo[2,3-c]pyridazine-5-carbonitrile]	6.01
CCc1cc(C)c(-c2cc3c(C)cn([C@H]4C[C@@](C)(O)C4)c3nn2)c(O)c1 [Example 62, 5-ethyl-2-{7-[(1s,3s)-3-hydroxy-3-methylcyclobutyl]-5-methyl-7H-pyrrolo[2,3-c]pyridazin-3-yl}-3-methylphenol]	70.8
Cc1cc(C(F)(F)F)cc(O)c1-c1cc2ccn([C@H]3C[C@@](C)(CO)C3)c2nn1 [Example 7, 2-{7-[(1s,3s)-3-(hydroxymethyl)-3-methylcyclobutyl]-7H-pyrrolo[2,3-c]pyridazin-3-yl}-3-methyl-5-(trifluoromethyl)phenol]	67.6
Cc1cc(C(F)(F)F)cc(O)c1-c1cc2c(C(F)(F)F)cn([C@H]3C[C@@](C)(O)C3)c2nn1 [Example 59, 2-{7-[(1s,3s)-3-hydroxy-3-methylcyclobutyl]-5-(trifluoromethyl)-7H-pyrrolo[2,3-c]pyridazin-3-yl}-3-methyl-5-(trifluoromethyl)phenol]	95.8
Cc1cc(C(C)(F)F)cc(O)c1-c1cc2c(C)cn([C@H]3C[C@@](C)(O)C3)c2nn1 [Example 69, 5-(1,1-difluoroethyl)-2-{7-[(1s,3s)-3-hydroxy-3-methylcyclobutyl]-5-methyl-7H-pyrrolo[2,3-c]pyridazin-3-yl}-3-methylphenol]	47.8
Cc1c(F)c(C(F)(F)F)cc(O)c1-c1cc2c(C)cn([C@H]3C[C@@](C)(O)C3)c2nn1 [Example 50, 4-fluoro-2-{7-[(1s,3s)-3-hydroxy-3-methylcyclobutyl]-5-methyl-7H-pyrrolo[2,3-c]pyridazin-3-yl}-3-methyl-5-(trifluoromethyl)phenol]	236
Cc1cc(C(F)(F)F)cc(O)c1-c1cc2c(nn1)N([C@H]1CN(C)CC[C@H]1O)CC2 [Example 49, (3S,4R)-3-{3-[2-hydroxy-6-methyl-4-(trifluoromethyl)phenyl]-5,6-dihydro-7H-pyrrolo[2,3-c]pyridazin-7-yl}-1-methylpiperidin-4-ol]	78
Cc1cc(C(F)(F)F)cc(O)c1-c1cc2c(nn1)N([C@@H]1CCCN(C(C)C)C1)CC2 [Example 15, 3-methyl-2-{7-[(3R)-1-(propan-2-yl)piperidin-3-yl]-6,7-dihydro-5H-pyrrolo[2,3-c]pyridazin-3-yl}-5-(trifluoromethyl)phenol]	4.86
Cc1cc(C(F)(F)F)cc(O)c1-c1cc2c(nn1)N([C@@H]1CCCN(C)C1)C(C)C2 (mixture of isomers) [Example 30, 3-methyl-2-{6-methyl-7-[(3R)-1-methylpiperidin-3-yl]-6,7-dihydro-5H-pyrrolo[2,3-c]pyridazin-3-yl}-5-(trifluoromethyl)phenol]	14.4
Cc1cc(C(F)(F)F)cc(O)c1-c1cc2c(nn1)N([C@H]1C[C@@](C)(O)C1)CC2C (mixture of isomers) [Example 85, 2-{7-[(1s,3s)-3-hydroxy-3-methylcyclobutyl]-5-methyl-6,7-dihydro-5H-pyrrolo[2,3-c]pyridazin-3-yl}-3-methyl-5-(trifluoromethyl)phenol]	65.3
Cc1cc(C(F)(F)F)cc(O)c1-c1cc2c(nn1)N([C@@H]1CC[C@@H]3CC[C@H]1N3C)CC2 (single isomer, unassigned) [Example 19, 3-methyl-2-{7-[(1R,2R,5S or 1,2S,5R)-8-methyl-8-azabicyclo[3.2.1]octan-2-yl]-6,7-dihydro-5H-pyrrolo[2,3-c]pyridazin-3-yl}-5-(trifluoromethyl)phenol]	9.99
COc1cn([C@H]2C[C@@](C)(O)C2)c2nnc(-c3c(C)cc(Cl)cc3O)cc12 [Example 28, 5-chloro-2-{7-[(1s,3s)-3-hydroxy-3-methylcyclobutyl]-5-methoxy-7H-pyrrolo[2,3-c]pyridazin-3-yl}-3-methylphenol]	12
Cc1c(-c2ccc(C(F)(F)F)cc2O)nnc2c1CCN2[C@H]1C[C@@](C)(O)C1 [Example 39, 2-{7-[(1s,3s)-3-hydroxy-3-methylcyclobutyl]-4-methyl-6,7-dihydro-5H-pyrrolo[2,3-c]pyridazin-3-yl}-5-(trifluoromethyl)phenol]	401
